Experiments:
MC38 tumor = settings: intratumoral injection, Cy5 label
Excerpt: The images were processed and analyzed by software sold under the tradename LIVING IMAGE® 4.7.2 (PerkinElmer, Waltham, Massachusetts, United States of America).

[1] = Toxicity after intravenous injection; type: in vivo; settings: C57BL/6 mice, biweekly, total of 4 doses

Nc1nc2c(ncn2[C@@H]2O[C@@H]3COP(=O)(O)O[C@H]4[C@@H](O)[C@H](n5cnc6c(N)ncnc65)O[C@@H]4COP(=O)(O)O[C@@H]2[C@@H]3O)c(=O)[nH]1 [cGAMP, cyclic guanosine monophosphate-adenosine monophosphate]
fluorescence signal retention in tumor (MC38 tumor): diffused and disappeared quickly

Ir(DBB)[dF(CF3)ppy]2^+ [DBB^F-Ir]
toxicity (bodyweight gains) [1]: did not cause toxicity
